Here are results for one molecule from patent US11497740B2, “Use of Jumonji C demethylase inhibitors for the treatment and prevention of chemotherapy resistance and radioresistance in cancer” (THE BOARD OF REGENTS OF THE UNIVERSITY OF TEXAS SYSTEM, priority 2016, dated 2022).

SMILES strings stand for the structures.

For one test, the system named is H3K9me3 demethylases. The test can be described thus: Histone demethylase activity in H1299 cellular extracts (H3K9me3). Format: cell-based, Human. To be noted: JIB-04 4 h, no IR. How it is done:
For Histone demethylase activity determination 2×10^6 H1299 cells were seeded in P150 plates. After 24 h cells were pretreated with JIB-04 or DMSO for 4 h, irradiated with a total dose of 8 Gy of radiation. Then cells were sonicated (3×4 sec) and equal amounts of protein were incubated with a histone H3K4me3 or H3K9me3 substrate in a reaction buffer containing cofactors for 1 h at 37° C. Finally specific immune-detection of the H3K4me2 or H3K9me2 product using the Epigentek kit P-3081 for H3K9me3 demethylation and P-3083 for H3K4me3 demethylation. Background readings were given by heat inactivated extracts.

Another test concerns H1693 T8. Description: MTS cell viability assay, H1693 T8 resistant variant vs parental. It is filed as cell-based, human. To be noted: H1693 T8 vs parental. How it is done:
(§1) NSCLC lines were treated with paclitaxel+carboplatin combination, given in a ˜2:3 wt/wt ratio, to mirror the clinical dosage values of ˜225 mg/m2 and ˜330 mg/m2, paclitaxel and carboplatin respectively. Note that considering the molecular weights of the two drugs, this translates to approximately a 1 to 3.4 molar ratio. Drugs were given in cycles, following a drug on/drug off treatment scheme. Each cycle consisted of 4-5 days of drug treatment and drug-free culturing for about 1-2 weeks or more to allow the surviving cells to repopulate the plate. […] Untreated parental cells were simultaneously maintained at all times for comparison. Cell viability was assessed in 96-well plates using standard MTS assays (Promega). Treatment duration in MTS assays was 4 days. Drugs were tested in two- or four-fold serial dilutions, totaling 8 different drug concentrations, with 8 replicates per concentration. Response was validated in multiple replicate plates (n≥3).
(§2) Cell viability was assessed by standard MTS assays using Promega's CellTiter reagents. Eight drug concentrations given as two- or four-fold dilutions were tested for each chemotherapeutic agent. In addition, each experiment contained eight replicates per concentration and the entire assay was performed in multiple replicates (n≥3).
(Tetrazolium assays rely on reduction of a dye to a coloured formazan, in cell work by metabolically active cells.)

The test system of test [1] is radioresistant (HCC95, HCC1195 and HCC2279) NSCLC cell lines. Description: Clonogenic survival with IR, radioresistant NSCLC lines. To be noted: all radioresistant NSCLC lines tested. It is filed as cell-based, Human. How it is done: (§3) Cells were serially diluted to appropriate concentrations and plated into 60-mm dish in triplicate for 4 h. Then cells were treated with the indicated drugs, and irradiated 4 hours later with graded doses of radiation for concurrent treatment or irradiated and 4 hours later the drugs added for post-treatment. All cells were irradiated at room temperature in ambient air using a 137Cs source (Mark 1-68 irradiator, JL Shepherd & Associated). Surviving colonies were stained with crystal violet approximately 10 to 14 days later and colonies formed with more than 50 cells were counted. Clonogenic fraction of irradiated cells was normalized to the plating efficiency of unirradiated controls. The data are presented as the mean±SD. The curve S=e^−(αD+βD2) was fitted to the experimental data using a least square fit algorithm using the program Sigma Plot 11.0 (Systat Software, Inc.).

In test [2] the test system is H1355 Parental xenografts. The test can be described thus: Subcutaneous xenograft drug response, H1355 Parental. It is filed as in vivo, mice. The note with it: GSK-J4 100 mg/kg i.p. 5x per week; JIB-04 50 mg/kg oral gavage 3x per week; 4 weeks. How it is done:
Animals were housed under standard, sterile conditions at UTSW animal facility. All experiments were carried out under approved IACUC protocols and followed UTSW animal care procedures. For tumor growth rate studies and docetaxel+cisplatin drug response comparisons, 6-8 week old female NOD/SCID mice were used. For all subsequent in vivo drug response studies, 6 week old female athymic nude mice were used (Charles River Labs, Jackson Labs). Experimental details are provided in supplemental information.
Parental and resistant NSCLC cell lines (1×10^6 cells in PBS or RPMI for H1299; 5×10^6 cells in PBS/matrigel for H1355 and HCC4017) were injected subcutaneously into the right flank of mice. Tumor growth was monitored by caliper measurements and tumor volume was calculated by 0.5×length×width^2). Treatment was started when tumors reached ˜150-200 mm3. Drug/Vehicle therapy was given to tumor volume matched pairs. Docetaxel (3 mg/kg) and cisplatin (3 mg/kg) were given i.p. once a week for 3 weeks. […]

The test system of test [3] is immortalized normal human bronchial epithelial cells HBEC3KT and HBEC30KT. Description: Clonogenic survival with IR, normal bronchial epithelial cells. To be noted: IC50 doses of JIB-04, 4 h prior to radiation. It is filed as cell-based. How it is done: as §3
To evaluate whether the effect of JIB-04 on DNA repair dynamics described above was cancer-selective, IC50 doses of JIB-04 in colony formation assays of immortalized normal human bronchial epithelial cells HBEC3KT and HBEC30KT were calculated (FIG. 27A). Then these doses of JIB-04 were used to pretreat cells 4 h prior to radiation and survival was measured. […]

For the next test, the system named is HCC4017 T5. Description: MTS cell viability assay, HCC4017 T5 resistant variant vs parental. It is filed as cell-based, human. To be noted: HCC4017 T5 vs parental. How it is done: as §1, §2

As for `Clc1ccc(N/N=C(\c2ccccc2)c2ccccn2)nc1` [JIB-04], the “basal H3K9me3 demethylase activity” value in the test on H3K9me3 demethylases is reported as “did not have any effects on basal activity”. Also, the “fold increased sensitivity vs parental” value with H1693 T8 and in the test on HCC4017 T5 was approximately 3 fold in each case. Further, the “survival fraction at 2 Gy of radiation (SF2)” value in test [1] is listed as “decreasing the survival fraction at 2 Gy of radiation (SF2)”. In addition, the “change in tumor volume relative to treatment start” value in test [2] is given as “continued to grow in volume”. Also, the “radiosensitization (clonogenic survival)” value in test [3] is reported as “did not radiosensitize”.
